Measured values from ChEMBL document CHEMBL3102727, “Conformationally constrained ortho-anilino diaryl ureas: discovery of 1-(2-(1'-neopentylspiro[indoline-3,4'-piperidine]-1-yl)phenyl)-3-(4-(trifluoromethoxy)phenyl)urea, a potent, selective, and bioavailable P2Y1 antagonist” (J Med Chem, 2013).
Values after ≈ are worked out from the molar mass of the structure shown. Active and inactive are the calls of the source. No cut-off for these calls is given here.

What was measured:
[1] = Aqueous solubility of the crystalline form of compound in phosphate buffer at pH 6.5; type: physicochemical
[2] = Partition coefficient, log P of the compound at pH 7 by reversed-phase HPLC method; type: physicochemical; conditions: octanol/water
P2Y purinoceptor 1 [3] = target: T1, P2Y purinoceptor 1 (Homo sapiens, UniProt P47900); assay: Displacement of [33P]-2MeS-ADP from human P2Y1 receptor expressed in HEK293 cells after 1 hr by scintillation counting analysis; type: cell-based
[4] = Aqueous solubility of the of partial crystalline form of compound in phosphate buffer at pH 6.5; type: physicochemical
P2Y purinoceptor 1 [5] = target: T1, P2Y purinoceptor 1; assay: Antagonist activity at P2Y1 receptor in washed human platelets assessed as 1 uM 2-methylthio-ADP-induced calcium flux by FLIPR assay; type: functional
[6] = Metabolic stability in human liver microsomes assessed as compound remaining after 10 mins; type: ADME; conditions: read-out: Stability
[7] = Aqueous solubility of the amorphous form of compound in phosphate buffer at pH 6.5; type: physicochemical
[8] = Metabolic stability in rat liver microsomes assessed as compound remaining after 10 mins; type: ADME; conditions: read-out: Stability
P2Y purinoceptor 1 [9] = target: T1, P2Y purinoceptor 1; assay: Antagonist activity at P2Y1 receptor in platelet-enriched human plasma assessed as 2.5 uM ADP-induced platelet aggregation preincubated for 1 min followed by ADP induction measured at 5 mins by aggregometric analysis
[10] = Metabolic stability in mouse liver microsomes assessed as compound remaining after 10 mins; type: ADME, Microsome; conditions: read-out: Stability

T1 sequence (P47900 whole entry): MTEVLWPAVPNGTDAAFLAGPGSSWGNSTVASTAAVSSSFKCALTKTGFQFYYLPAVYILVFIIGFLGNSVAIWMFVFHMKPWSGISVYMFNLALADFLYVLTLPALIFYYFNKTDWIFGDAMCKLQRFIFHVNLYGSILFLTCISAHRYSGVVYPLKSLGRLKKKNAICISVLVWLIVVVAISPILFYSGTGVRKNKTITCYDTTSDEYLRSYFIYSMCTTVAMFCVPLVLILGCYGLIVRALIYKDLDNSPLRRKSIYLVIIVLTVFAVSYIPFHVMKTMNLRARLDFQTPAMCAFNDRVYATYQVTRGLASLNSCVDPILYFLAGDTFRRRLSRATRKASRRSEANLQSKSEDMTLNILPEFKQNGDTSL

| Compound | logP [2] | Ki (P2Y purinoceptor 1 [3]) | solubility [7] | other results |
| --- | --- | --- | --- | --- |
| COC(=O)N1CCC2(CC1)CN(c1ccccc1NC(=O)Nc1ccc(OC(F)(F)F)cc1)c1ccccc12 | 6 | 13.3 nM |  | solubility [1]: 1 µg/mL (≈ 1.85 µM) |
| O=C(Nc1ccc(OC(F)(F)F)cc1)Nc1ccccc1N1CC2(CCN(CCO)CC2)c2ccccc21 | 4.6 | 4500 nM |  | solubility [4]: 123 µg/mL (≈ 234 µM) |
| CC(C)(C)CN1CCC2(CC1)CN(c1ccccc1NC(=O)Nc1ccc(OC(F)(F)F)cc1)c1cnccc12 | > 6 | 11.5 nM | 25 µg/mL (≈ 45.2 µM) | IC50 (P2Y purinoceptor 1 [5]): 10.7 nM; remaining at 10 min [6]: 67%; remaining at 10 min [8]: 73% |
| CC1(C)CN(c2ncccc2NC(=O)Nc2ccc(OC(F)(F)F)cc2)c2ccccc21 |  | 20.3 nM |  |  |
| CN1CCC2(CC1)CN(c1ccccc1NC(=O)Nc1ccc(OC(F)(F)F)cc1)c1ccccc12 | 4.6 | 690 nM | 100 µg/mL (≈ 201 µM) |  |
| CC1(C)CN(c2ccccc2NC(=O)Nc2ccc(OC(F)(F)F)cc2)c2ccccc2O1 |  | 39 nM |  |  |
| COCCN1CCC2(CC1)CN(c1ccccc1NC(=O)Nc1ccc(OC(F)(F)F)cc1)c1ccccc12 | 5.1 | 390 nM | 66 µg/mL (≈ 122 µM) |  |
| O=C(Nc1ccc(OC(F)(F)F)cc1)Nc1ccccc1N1CC2(CCCCC2)c2ccccc21 |  | 5.9 nM | < 1 µg/mL | IC50 (P2Y purinoceptor 1 [5]): 2.2 nM |
| CC(C)CN1CCC2(CC1)CN(c1ccccc1NC(=O)Nc1ccc(OC(F)(F)F)cc1)c1ccccc12 | 5.5 | 20.7 nM |  | remaining at 10 min [6]: 79%; remaining at 10 min [8]: 84%; solubility [4]: 7 µg/mL (≈ 13 µM) |
| CN1CCN(c2ccccc2NC(=O)Nc2ccc(OC(F)(F)F)cc2)c2ccccc21 | 5.5 | 94 nM |  |  |
| O=C(Nc1ccc(OC(F)(F)F)cc1)Nc1ccccc1N1CC2(CCNCC2)c2ccccc21 | 4.3 | 4500 nM |  | solubility [4]: 84 µg/mL (≈ 174 µM) |
| CC1(C)CCN(c2ncccc2NC(=O)Nc2ccc(OC(F)(F)F)cc2)c2ccccc21 |  | 16 nM |  |  |
| O=C(Nc1ccc(OC(F)(F)F)cc1)Nc1ccccc1N1CCCc2ccccc21 |  | 36.5 nM |  |  |
| O=C(Nc1ccc(OC(F)(F)F)cc1)Nc1ccccc1-c1cc2ccccc2[nH]1 |  |  |  | Activity (P2Y purinoceptor 1 [9]): inactive; IC50 (P2Y purinoceptor 1 [3]): 75 nM |
| CC(C)(C)CN1CCC2(C1)CN(c1ccccc1NC(=O)Nc1ccc(OC(F)(F)F)cc1)c1ccccc12 (stereo unspecified) | > 6.2 | 5.8 nM | 1 µg/mL (≈ 1.86 µM) |  |
| O=C(Nc1ccc(OC(F)(F)F)cc1)Nc1ccccc1N1CC2(CCC2)c2ccccc21 |  | 7.6 nM |  | IC50 (P2Y purinoceptor 1 [5]): 10.5 nM |
| O=C(O)CN1CCC2(CC1)CN(c1ccccc1NC(=O)Nc1ccc(OC(F)(F)F)cc1)c1ccccc12 | 4.4 | 13500 nM | 5 µg/mL (≈ 9.25 µM) |  |

| Compound | logP [2] | Ki (P2Y purinoceptor 1 [3]) | solubility [7] | other results |
| --- | --- | --- | --- | --- |
| O=C(Nc1ccc(OC(F)(F)F)cc1)Nc1ccccc1N1CCCCc2ccccc21 |  | 830 nM |  |  |
| O=C(Nc1ccc(OC(F)(F)F)cc1)Nc1ccccc1N1CC2(CCN(C(=O)OCc3ccccc3)CC2)c2ccccc21 |  | 36.6 nM |  | IC50 (P2Y purinoceptor 1 [5]): 5.9 nM |
| CC(C)(C)CN1CCCC2(C1)CN(c1ccccc1NC(=O)Nc1ccc(OC(F)(F)F)cc1)c1ccccc12 (stereo unspecified) | > 6.2 | 12.8 nM | < 1 µg/mL |  |
| O=C(Nc1ccc(OC(F)(F)F)cc1)Nc1ccccc1N1CC2(CC2)c2ccccc21 |  | 26 nM |  |  |
| CC(C)(C)CN1CCC2(CC1)CN(c1ccccc1NC(=O)Nc1ccc(OC(F)(F)F)cc1)c1ccncc12 | 5.1 | 617 nM | 428 µg/mL (≈ 773 µM) | IC50 (P2Y purinoceptor 1 [5]): 346 nM |
| O=C(Nc1ccc(OC(F)(F)F)cc1)Nc1cccnc1-c1cc2ccccc2[nH]1 |  |  |  | Activity (P2Y purinoceptor 1 [9]): inactive; IC50 (P2Y purinoceptor 1 [3]): 227 nM |
| CC(C)(C)CN1CCC2(CC1)CN(c1ccccc1NC(=O)Nc1ccc(OC(F)(F)F)cc1)c1ncccc12 |  | 253 nM |  | IC50 (P2Y purinoceptor 1 [5]): 503 nM |
| O=C(Nc1ccc(OC(F)(F)F)cc1)Nc1ccccc1N1CC2(CCCC2)c2ccccc21 |  | 6.6 nM |  |  |
| CC1CCN(c2ccccc2NC(=O)Nc2ccc(OC(F)(F)F)cc2)c2ccccc21 (stereo unspecified) |  | 29.5 nM |  |  |
| CC(C)(C)CN1CCC2(CC1)CN(c1ccccc1NC(=O)Nc1ccc(OC(F)(F)F)cc1)c1cccnc12 | > 6.2 | 28.7 nM | 5 µg/mL (≈ 9.03 µM) |  |
| CC1(C)CCN(c2ccccc2NC(=O)Nc2ccc(OC(F)(F)F)cc2)c2ccccc21 | > 6.2 | 7.3 nM |  | remaining at 10 min [6]: 51%; remaining at 10 min [8]: 6%; remaining at 10 min [10]: 63% |
| CC(C)NC(=O)N1CCC2(CC1)CN(c1ccccc1NC(=O)Nc1ccc(OC(F)(F)F)cc1)c1ccccc12 | 5.7 | 200 nM |  | solubility [4]: 1 µg/mL (≈ 1.76 µM) |
| CC(C)(C)CN1CCC2(CC1)CCN(c1ccccc1NC(=O)Nc1ccc(OC(F)(F)F)cc1)c1ccccc12 | > 6.2 | 4.6 nM | 16 µg/mL (≈ 28.2 µM) | IC50 (P2Y purinoceptor 1 [5]): 9.9 nM; remaining at 10 min [6]: 90%; remaining at 10 min [8]: 87% |
| O=C(Nc1ccc(OC(F)(F)F)cc1)Nc1ccccc1N1CC2(CCN(Cc3ccccc3)CC2)c2ccccc21 | > 6.3 | 18.6 nM |  | solubility [4]: < 1 µg/mL |
| CC(C)N1CCC2(CC1)CN(c1ccccc1NC(=O)Nc1ccc(OC(F)(F)F)cc1)c1ccccc12 | 4.5 |  |  | solubility [4]: 71 µg/mL (≈ 135 µM) |
| O=C(Nc1ccc(OC(F)(F)F)cc1)Nc1ccccc1N1CCOc2ccccc21 | 5.7 | 65 nM |  |  |
